Source: patent US9765037B2, “Compositions and methods for treating toxoplasmosis, cryptosporidiosis, and other apicomplexan protozoan related diseases” (University of Washington Through its Center for …, priority 2010, dated 2017)
≈ marks a conversion by molar mass, not a printed value. Read-outs that look alike come from different tables or passages of the source.

Legend:
TgCDPK1 = TgCDPK1 (Toxoplasma gondii, UniProt Q9BJF5); format: biochemical
CpCDPK1 = CpCDPK1 (Cryptosporidium parvum (strain Iowa II), UniProt A3FQ16); test: biochemical; format: biochemical
PfCDPK1 = PfCDPK1 (Plasmodium falciparum (isolate 3D7), UniProt P62344); test: biochemical
PfCDPK4 = PfCDPK4 (Plasmodium falciparum (isolate 3D7), UniProt Q8IBS5); test: biochemical
[1] = Solubility in buffers of various pH; format: physicochemical; conditions: pH 6.5, aqueous buffer, read-out: Experimental Solubility pH 6.5
[2] = test system: human promyelocytic leukemia (HL-60); test: Growth inhibition of human cell line HL-60
[3] = test system: human lymphocyte (CRL8155); test: Growth inhibition of human cell line CRL8155
[4] = Blood levels after oral gavage dosing of mice (LC-MS); conditions: mouse, in vivo, po
[5] = Table 8, read-out: IC50 (μM) CpCDPK1

Sequence of TgCDPK1 (Q9BJF5 1-507): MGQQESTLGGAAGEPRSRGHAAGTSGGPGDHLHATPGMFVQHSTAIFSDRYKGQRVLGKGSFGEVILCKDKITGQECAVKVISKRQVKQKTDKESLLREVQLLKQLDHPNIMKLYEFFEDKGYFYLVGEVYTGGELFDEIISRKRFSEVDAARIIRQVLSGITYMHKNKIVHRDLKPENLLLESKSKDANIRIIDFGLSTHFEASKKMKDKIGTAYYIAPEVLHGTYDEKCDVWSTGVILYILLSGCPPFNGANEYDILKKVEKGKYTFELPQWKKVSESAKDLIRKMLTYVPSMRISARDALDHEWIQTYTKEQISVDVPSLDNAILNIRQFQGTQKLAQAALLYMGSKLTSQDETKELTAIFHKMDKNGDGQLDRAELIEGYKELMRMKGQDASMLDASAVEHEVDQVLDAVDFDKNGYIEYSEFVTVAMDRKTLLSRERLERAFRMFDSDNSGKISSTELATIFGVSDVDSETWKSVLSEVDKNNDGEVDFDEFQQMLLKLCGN
Sequence of CpCDPK1 (A3FQ16 1-538): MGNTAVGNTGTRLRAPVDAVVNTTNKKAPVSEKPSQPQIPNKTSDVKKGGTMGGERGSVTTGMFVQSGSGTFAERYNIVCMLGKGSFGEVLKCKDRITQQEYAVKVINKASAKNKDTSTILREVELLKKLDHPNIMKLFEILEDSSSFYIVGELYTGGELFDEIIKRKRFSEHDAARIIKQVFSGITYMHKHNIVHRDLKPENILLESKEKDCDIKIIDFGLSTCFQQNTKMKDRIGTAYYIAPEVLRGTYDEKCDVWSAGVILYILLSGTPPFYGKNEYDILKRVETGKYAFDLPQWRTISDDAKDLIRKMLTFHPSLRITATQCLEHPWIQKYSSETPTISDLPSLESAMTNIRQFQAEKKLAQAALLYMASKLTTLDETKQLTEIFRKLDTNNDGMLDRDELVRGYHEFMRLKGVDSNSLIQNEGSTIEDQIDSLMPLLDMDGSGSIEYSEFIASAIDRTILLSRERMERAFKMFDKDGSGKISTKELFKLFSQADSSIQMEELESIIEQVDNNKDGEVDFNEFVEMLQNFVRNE

COc1ccc2[nH]c(-c3nn(C(C)C)c4ncnc(N)c34)cc2c1 [Compound 27, 1-isopropyl-3-(5-methoxy-1H-indol-2-yl)-1H-pyrazolo[3,4-d]pyrimidin-4-amine]
IC50 (TgCDPK1; read-out: IC50 (μM) TgCDPK1): 0.0569 µM
IC50 (CpCDPK1; [5]): 0.623 µM
EC50 (PfCDPK1): 879 nM
EC50 (PfCDPK4): > 3000 nM

CCOc1ccc2cc(-c3nn(C4CCN(CC)CC4)c4ncnc(N)c34)ccc2c1 [Compound 149]
EC50 (PfCDPK4): 81.6 nM
solubility ([1]; buffer): 75 µM (≈ 31.2 µg/mL)
Cell Toxicity HL60, % at 30 μM [2]: <30% at 30 μM
Cell Toxicity CRL8155, % at 10 μM [3]: <30% at 10 μM
Cell Toxicity CRL8155, % at 30 μM [3]: <30% at 30 μM

COc1ccc(-c2nn(C(C)(C)C)c3ncnc(N)c23)cc1C [Compound 132]
EC50 (PfCDPK1): > 3000 nM
EC50 (PfCDPK4): 1490 nM
solubility ([1]; buffer): 3.8 µM (≈ 1.18 µg/mL)

CC(C)C(=O)Nc1ccc(-c2nn(C(C)(C)C)c3ncnc(N)c23)cc1 [Compound 59, N-(4-(4-amino-1-tert-butyl-1H-pyrazolo[3,4-d]pyrimidin-3-yl)phenyl)isobutyramide]
IC50 (TgCDPK1; read-out: IC50 (μM) TgCDPK1): 0.0997 µM
IC50 (CpCDPK1; [5]): 0.832 µM
EC50 (PfCDPK1): 111 nM
EC50 (PfCDPK4): 459 nM

Cc1cccc2[nH]c(-c3nc(C(C)(C)C)n4ccnc(N)c34)cc12 [Compound 83]
EC50 (PfCDPK1): 1080 nM
EC50 (PfCDPK4): 371 nM
solubility ([1]; buffer): 36 µM (≈ 11.5 µg/mL)
Cell Toxicity HL60, % at 10 μM [2]: 37% at 10 μM
Cell Toxicity HL60, % at 30 μM [2]: 38% at 30 μM
Cell Toxicity CRL8155, % at 10 μM [3]: <30% at 10 μM
Cell Toxicity CRL8155, % at 30 μM [3]: 46% at 30 μM

COc1ccc(-c2nn(CC3CCNCC3)c3ncnc(N)c23)cc1C [Compound 144]
solubility ([1]; buffer): 60 µM (≈ 21.1 µg/mL)

CC(C)(C)c1nc(-c2ccc3ccccc3c2)c2c(N)nccn12 [Compound 84]
EC50 (PfCDPK1): 61.3 nM
EC50 (PfCDPK4): 55.1 nM
solubility ([1]; buffer): 26 µM (≈ 8.23 µg/mL)
Cell Toxicity HL60, % at 10 μM [2]: <30% at 10 μM
Cell Toxicity HL60, % at 30 μM [2]: 50% at 30 μM
Cell Toxicity CRL8155, % at 10 μM [3]: <30% at 10 μM
Cell Toxicity CRL8155, % at 30 μM [3]: 48% at 30 μM

Cn1ncc2cc(-c3nn(CC4CCNCC4)c4ncnc(N)c34)ccc21 [Compound 121]
EC50 (PfCDPK1): 702 nM
EC50 (PfCDPK4): 146 nM
solubility ([1]; buffer): 43 µM (≈ 15.6 µg/mL)
Cell Toxicity HL60, % at 10 μM [2]: <30% at 10 μM
Cell Toxicity CRL8155, % at 10 μM [3]: <30% at 10 μM
AUC [4]: 0.445 µM·h
Cmax [4]: 190 nM
Tmax [4]: 1.5 h

COc1cc(-c2nn(C(C)C)c3ncnc(N)c23)cc(OC)c1OC [Compound 7l, 1-isopropyl-3-(3,4,5-trimethoxyphenyl)-1H-pyrazolo[3,4-d]pyrimidin-4-amine]
IC50 (TgCDPK1; read-out: TgCDPK1 IC50): 0.42 µM
selectivity TgCDPK1 versus CpCDPK1 (in words) (CpCDPK1): equipotent or slightly selective for CpCDPK1
IC50 (CpCDPK1; read-out: CpCDPK1 IC50): 0.093 µM
inhibition at 3 µM (PfCDPK1; read-out: PfCDPK1 (% inhibition @ 3 uM)): 85%
inhibition at 3 µM (PfCDPK4; read-out: PfCDPK4 (% inhibition @ 3 uM)): 31%

CC(C)COc1ccc2cc(-c3nn(CC4CCN(C)CC4)c4ncnc(N)c34)ccc2c1 [Compound 124]
EC50 (PfCDPK1): 119 nM
EC50 (PfCDPK4): 101 nM
solubility ([1]; buffer): 41 µM (≈ 18.2 µg/mL)
AUC [4]: 6.65 µM·h
Cmax [4]: 1840 nM
Tmax [4]: 3 h

CC(C)(C)n1nc(-c2ccc(NC(=O)c3ccccc3)cc2)c2c(N)ncnc21 [Compound 65, N-(4-(4-amino-1-tert-butyl-1H-pyrazolo[3,4-d]pyrimidin-3-yl)phenyl)benzamide]
IC50 (TgCDPK1; read-out: IC50 (μM) TgCDPK1): 0.171 µM
IC50 (CpCDPK1; [5]): 1.16 µM
EC50 (PfCDPK1): 101 nM
EC50 (PfCDPK4): 2850 nM

CC(C)n1nc(-c2ccc(Cl)cc2)c2c(N)ncnc21 [Compound 7a, 3-(4-chlorophenyl)-1-isopropyl-1H-pyrazolo[3,4-d]pyrimidin-4-amine]
IC50 (TgCDPK1; read-out: IC50 (μM) TgCDPK1): 0.018 µM
IC50 (CpCDPK1; [5]): 0.216 µM
IC50 (CpCDPK1; read-out: CpCDPK1 IC50): 0.22 µM
solubility ([1]; buffer): 45 µM (≈ 12.9 µg/mL)

CCC(=O)Nc1ccc(-c2nn(C(C)(C)C)c3ncnc(N)c23)cc1 [Compound 67, N-(4-(4-amino-1-tert-butyl-1H-pyrazolo[3,4-d]pyrimidin-3-yl)phenyl)propionamide]
IC50 (TgCDPK1; read-out: IC50 (μM) TgCDPK1): 0.196 µM
IC50 (CpCDPK1; [5]): 0.822 µM
EC50 (PfCDPK1): 325 nM
EC50 (PfCDPK4): 1990 nM

CC(C)n1nc(-c2ccc3c(c2)OCO3)c2c(N)ncnc21 [Compound 7u, 3-(benzo[d][1,3]dioxol-5-yl)-1-isopropyl-1H-pyrazolo[3,4-d]pyrimidin-4-amine]
IC50 (TgCDPK1; read-out: IC50 (μM) TgCDPK1): 0.045 µM
IC50 (CpCDPK1; read-out: IC50 (μM) CpCDPK1): 0.312 µM
EC50 (PfCDPK1): 422 nM
EC50 (PfCDPK4): 1100 nM

CC(C)(C)n1nc(-c2ccc(Cl)cc2)c2c(N)ncnc21 [Compound 146]
solubility [1]: 9 µM (≈ 2.72 µg/mL)

Nc1ncnc2c1c(-c1ccc3ccccc3c1)nn2CC1CCNCC1 [Compound 147, 3-(naphthalen-2-yl)-1-(piperidin-4-ylmethyl)-1H-pyrazolo[3,4-d]pyrimidin-4-amine]
EC50 (PfCDPK1): 66.8 nM
EC50 (PfCDPK4): 17.2 nM
solubility ([1]; buffer): 79 µM (≈ 28.3 µg/mL)
Cell Toxicity HL60, % at 10 μM [2]: 33% at 10 μM
Cell Toxicity HL60, % at 30 μM [2]: 60% at 30 μM;
Cell Toxicity CRL8155, % at 30 μM [3]: <30% at 30 μM

Nc1ncnc2c1c(-c1ccc(Cl)cc1)nn2CC1CCNCC1 [Compound 45, 3-(4-chlorophenyl)-1-(piperidin-4-ylmethyl)-1H-pyrazolo[3,4-d]pyrimidin-4-amine]
EC50 (PfCDPK1): 56.5 nM
EC50 (PfCDPK4): 350 nM
solubility ([1]; buffer): 62 µM (≈ 21.3 µg/mL)
